How the values were obtained:
[1] = system: Nutsedge; assay: Test B pre-emergence on Fallsington silt loam; type: in vivo, Cyperus rotundus; details: 28 days
Excerpt: (§1) Two plastic bulb pans were filled with fertilized and limed Fallsington silt loam soil. One pan was planted with corn, sorghum, Kentucky bluegrass and several grassy weeds. The other pan was planted with cotton, soybeans, purple nutsedge (Cyperus rotundus), and several broadleaf weeds. The following grassy and broadleaf weeds were planted: crabgrass (Digitaria sanguinalis), barnyardgrass (Echinochloa crusgalli), wild oats (Avena fatua), johnsongrass (Sorghum halepense), dallisgrass (Paspalum dilatatum), giant foxtail (Setaria faberii), cheatgrass (Bromus secalinus), mustard (Brassica arvensis), cocklebur (Xanthium pensylvanicum), pigweed (Amaranthus retroflexus), morningglory (Ipomoea hederacea), cassia (Cassia tora), teaweed (Sida spinosa), velvetleaf (Abutilon theophrasti), and jimsonweed (Datura stramonium). A 12.5 cm diameter plastic pot was also filed with prepared soil and planted with rice and wheat. Another 12.5 cm pot was planted with sugarbeets. The above four containers were treated pre- emergence with several test compounds within the scope of the invention.
(§2) Twenty-eight days after treatment, the plants were evaluated and visually rated for response to the chemical treatments utilizing the rating system described previously for Test A. The data are summarized in Table B.

[2] = system: Morningglory; assay: Test B pre-emergence on Fallsington silt loam; type: in vivo, Ipomoea hederacea; details: 28 days
Excerpt: as §1, §2

[3] = system: Jimsonweed; assay: Test B pre-emergence on Fallsington silt loam; type: in vivo, Datura stramonium; details: 28 days
Excerpt: as §1, §2

[4] = system: Cheatgrass; assay: Test D pre-/post-emergence weed control in cereals; type: in vivo, Bromus secalinus; details: 20 days
Excerpt: (§3) Two ten-inch in diameter plastic pans lined with polyethylene liners were filled with prepared Fallsington slit loam soil. One pan was planted with seeds of wheat (Triticum aestivum), barley (Hordeum vulgarel, wild oats (Avena fatua), downy brome (Bromus tectorum), cheatgrass (Bromus secalinus), blackgrass (Alopecurus myosuroides), annual bluegrass (Poa annual, green foxtail (Setaria viridis), quack grass (Agropyron repens), Italian ryegrass (Lolium multiflorum) and ripgut brome (Bromus rigidus). The other pan was planted with seeds of Russian thistle (Salsola kali), tansy mustard (Descuraina pinnata), smartweed (Polygonum pensylvanicum), tumble mustard (Sisymbrium altissium) kochia (Kochia scoparia), shepherd's purse (Capsella bursa-pastoris), Matricaria inodora, black nightshade (Solanum nigrum), yellow rocket (Barbarea vulgaris), wild mustard (Brassica kaber) and wild buckwheat (Polygonum convolvulus). The above two pans were treated pre-emergence. At the same time two pans in which the above plant species were growing were treated post-emergence. Plant height at the time of treatment ranged from 1-15 cm depending on plant species.
(§4) The compounds applied were diluted with a non-phytotoxic solvent and sprayed over-the-top of the pans. An untreated control and a solvent alone control were included for comparison. All treatments were maintained in the greenhouse for 20 days at which time the treatments were compared to the controls and the effects visually rated. The recorded data, presented in Table D, indicate that certain compounds from within the scope of the invention have utility for pre- and/or post-emergence weed control in cereal crops such as wheat and barley.

[5] = system: Blackgrass; assay: Test D pre-/post-emergence weed control in cereals; type: in vivo, Alopecurus myosuroides; details: 0.015 kg/ha, 20 days
Excerpt: as §3, with “Plant height at the time of treatment ranged from 1-15 cm depending on plant species.” left out
The compounds applied were diluted with a non-phytotoxic solvent and sprayed over-the-top of the pans. […] The recorded data, presented in Table D, indicate that certain compounds from within the scope of the invention have utility for pre- and/or post-emergence weed control in cereal crops such as wheat and barley.

[6] = system: Ripgut Brome; assay: Test D pre-/post-emergence weed control in cereals; type: in vivo, Bromus rigidus; details: 20 days
Excerpt: as §3, §4

[7] = system: Rice; assay: Test E application to paddy water after transplanting of rice; type: in vivo
Excerpt: (§5) Test samples were formulated and applied directly to the paddy water three days after transplanting of rice. The test was maintained in a greenhouse, and plant response ratings were taken at the stated intervals after application.

[8] = system: Barnyardgrass; assay: as above; type: in vivo, Echinochloa spp.
Excerpt: as §5

[9] = system: Water Chestnut; assay: as above; type: in vivo, Eleocharis spp.
Excerpt: as §5

[10] = system: Arrowhead; assay: as above; type: in vivo, Sagittaria spp.
Excerpt: as §5

[11] = system: Pigweed; assay: Test B pre-emergence on Fallsington silt loam; type: in vivo, Amaranthus retroflexus; details: 28 days
Excerpt: as §1, §2

[12] = system: Rice; assay: Test F over-the-top soil/foliage treatment; type: in vivo; details: soil/foliage spray, ~14 days
In short: (§6)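 Seed in sandy loam (Woodstown), grow in greenhouse. Spray compound, dissolved in a non-phytotoxic solvent, over plants and soil at ~14 days after planting. Score response visually versus untreated controls after ~14 days.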

[13] = system: Soybeans; assay: Test F over-the-top soil/foliage treatment; type: in vivo; details: for Soybeans response rating: soil/foliage spray, ~14 days
In short: as §6

[14] = system: Alfalfa; assay: Test F over-the-top soil/foliage treatment; type: in vivo; set-up: scale not given here; details: soil/foliage spray, ~14 days
Procedure: (§7) The test chemicals, dissolved in a non-phytotoxic solvent, were applied in an overall spray to the foliage and surrounding […] of selected plant species. […] Approximately fourteen days after treatment, all species were visually compared to untreated controls and rated for response to treatment.
(§8) All plant species were seeded in Woodstown sandy loam soil and grown in a greenhouse. The following species were grown in soil contained in plastic pots (25 cm diameter by 13 cm deep): soybeans, cotton, alfalfa, corn, rice, wheet, sorghum, velvetleaf (Abutilon theophrasti), sesbania (Sesbania exaltata), Cassia (Cassia tora), morningglory (Ipomoea hederacea), jimsonweed (Datura stramonium), cocklebur (Xanthium pensylvanicum), crabgrass (Digitaria spp.), nutsedge (Cyperus rotundus), barnyardgrass (Echinochloa crusgalli), giant foxtail (Setaria faberii) and wild oats (Avena fatua). The following species were grown in soil in a paper cup (12 cm diameter by 13 cm deep): sunflower, sugarbeets, and mustard. All plants were sprayed approximately 14 days after planting.

[15] = system: Sorghum; assay: Test F over-the-top soil/foliage treatment; type: in vivo; set-up: scale not given here; details: soil/foliage spray, ~14 days
Procedure: as §7, §8

[16] = system: Mustard; assay: Test B pre-emergence on Fallsington silt loam; type: in vivo, Brassica arvensis; details: 28 days
Excerpt: as §1, §2

[17] = system: Teaweed; assay: Test B pre-emergence on Fallsington silt loam; type: in vivo, Sida spinosa; details: 28 days
Excerpt: as §1, §2

[18] = system: Velvetleaf; assay: Test B pre-emergence on Fallsington silt loam; type: in vivo, Abutilon theophrasti; details: 28 days
Excerpt: as §1, §2

[19] = system: Cotton; assay: Test F over-the-top soil/foliage treatment; type: in vivo; details: soil/foliage spray, ~14 days
In short: as §6

[20] = system: Cocklebur; assay: Test F over-the-top soil/foliage treatment; type: in vivo, Xanthium pensylvanicum; details: soil/foliage spray, ~14 days
Procedure: as §7, §8

CCCS(=O)(=O)Oc1ccccc1S(=O)(=O)NC(=O)Nc1nc(OC)cc(OC)n1 [Compound 36, N-[(4,6-dimethoxypropimidin-2-yl)aminocarbonyl]-2-hydroxybenzenesulfonamide, 1-propanesulfonate]
Nutsedge response rating ([1]; 0.06 kg/ha): 7G
Morningglory response rating ([2]; 0.06 kg/ha): 4G
Jimsonweed response rating ([3]; 0.06 kg/ha): 3G
Cheatgrass response rating ([4]; Post-Emergence, 0.015 kg/ha): 1G
Cheatgrass response rating ([4]; Pre-Emergence, 0.015 kg/ha): 7G
Cheatgrass response rating ([4]; Pre-Emergence, 0.06 kg/ha): 10C
Blackgrass response rating ([5]; Post-Emergence): 2G
Blackgrass response rating ([5]; Pre-Emergence): 6G
Ripgut Brome response rating ([6]; Post-Emergence, 0.015 kg/ha): 0
Ripgut Brome response rating ([6]; Post-Emergence, 0.06 kg/ha): 2G
Ripgut Brome response rating ([6]; Pre-Emergence, 0.015 kg/ha): 2G
Rice 1 Week ([7]; 25 g/ha in paddy water): 0
Rice 8 Weeks ([7]; 25 g/ha in paddy water): 0
Rice 1 Week ([7]; 100 g/ha in paddy water): 0
Rice 8 Weeks ([7]; 100 g/ha in paddy water): 0
Barnyardgrass* 8 Weeks ([8]; 25 g/ha in paddy water): 0
Barnyardgrass* 8 Weeks ([8]; 100 g/ha in paddy water): 0
Water Chestnut** 8 Weeks ([9]; 25 g/ha in paddy water): 10C
Water Chestnut** 8 Weeks ([9]; 100 g/ha in paddy water): 10C
Arrowhead*** 8 Weeks ([10]; 25 g/ha in paddy water): 0
Arrowhead*** 8 Weeks ([10]; 100 g/ha in paddy water): 0

CCCS(=O)(=O)Oc1ccccc1S(=O)(=O)NC(=O)Nc1nc(C)nc(OC)n1 [Compound 39, 2-hydroxy-N-[(4-methoxy-6-methyl-1,3,5-triazin-2-yl)aminocarbonyl]benzenesulfonamide, 1-propanesulfonate]
Pigweed response rating ([11]; 0.06 kg/ha): 4G
Nutsedge response rating ([1]; 0.06 kg/ha): 4G
Nutsedge response rating ([1]; 0.25 kg/ha): 6G
Morningglory response rating ([2]; 0.06 kg/ha): 9G
Rice response rating ([12]; 0.007 kg/ha): 2G
Rice response rating ([12]; 0.03 kg/ha): 4G
Rice response rating ([12]; 0.06 kg/ha): 0
Rice response rating ([12]; 0.12 kg/ha): 0
post-emergence control of weeds in soybeans ([13]; conclusion from Test F): has utility for the post-emergence control of weeds in soybeans
Soybeans response rating ([13]; 0.007 kg/ha): 0
Soybeans response rating ([13]; 0.03 kg/ha): 4G
Alfalfa response rating ([14]; 0.06 kg/ha): 10C
Sorghum response rating ([15]; 0.007 kg/ha): 3G
Sorghum response rating ([15]; 0.03 kg/ha): 5G
Sorghum response rating ([15]; 0.06 kg/ha): 0
Sorghum response rating ([15]; 0.12 kg/ha): 0

COc1cc(OC)nc(NC(=O)NS(=O)(=O)c2ccccc2OS(C)(=O)=O)n1 [Compound 1, N-[(4,6-Dimethoxypyrimidin-2-yl)aminocarbonyl]-2-hydroxybenzenesulfonamide, methanesulfonate]
Mustard response rating ([16]; 0.03 kg/ha): 10C
Mustard response rating ([16]; 0.12 kg/ha): 10C
Pigweed response rating ([11]; 0.03 kg/ha): 10C
Morningglory response rating ([2]; 0.03 kg/ha): 5G
Teaweed response rating ([17]; 0.03 kg/ha): 6G
Velvetleaf response rating ([18]; 0.12 kg/ha): 10C
Rice 4 Days ([7]; 1 g/ha in paddy water): 0
Rice 4 Weeks ([7]; 1 g/ha in paddy water): 0
Rice 4 Days ([7]; 4 g/ha in paddy water): 0
Rice 4 Weeks ([7]; 4 g/ha in paddy water): 0
Rice 4 Days ([7]; 8 g/ha in paddy water): 0
Rice 4 Weeks ([7]; 8 g/ha in paddy water): 0
Barnyardgrass* 4 Weeks ([8]; 1 g/ha in paddy water): 0
Barnyardgrass* 4 Weeks ([8]; 4 g/ha in paddy water): 0
Barnyardgrass* 4 Weeks ([8]; 8 g/ha in paddy water): 0
Water Chestnut** 4 Weeks ([9]; 1 g/ha in paddy water): 7G
Water Chestnut** 4 Weeks ([9]; 4 g/ha in paddy water): 8G
Water Chestnut** 4 Weeks ([9]; 8 g/ha in paddy water): 9G
Cotton response rating ([19]; 0.003 kg/ha): 10C
Alfalfa response rating ([14]; 0.015 kg/ha): 5C
Alfalfa response rating ([14]; 0.06 kg/ha): 9C
Sorghum response rating ([15]; 0.015 kg/ha): 9C
Sorghum response rating ([15]; 0.06 kg/ha): 10C
Cocklebur response rating ([20]; 0.003 kg/ha): 5G
Cocklebur response rating ([20]; 0.007 kg/ha): 7G

Cc1cc(C)nc(NC(=O)NS(=O)(=O)c2ccccc2OS(C)(=O)=O)n1 [Compound 3, N-[(4,6-dimethylpyrimidin-2-yl)aminocarbonyl]-2-hydroxybenzenesulfonamide, methanesulfonate]
Mustard response rating ([16]; 0.007 kg/ha): 5G
Mustard response rating ([16]; 0.03 kg/ha): 10C
Mustard response rating ([16]; 0.12 kg/ha): 10C
Pigweed response rating ([11]; 0.007 kg/ha): 0
Pigweed response rating ([11]; 0.12 kg/ha): 10C
Nutsedge response rating ([1]; 0.007 kg/ha): 0
Nutsedge response rating ([1]; 0.015 kg/ha): 0
Morningglory response rating ([2]; 0.007 kg/ha): 3G
Morningglory response rating ([2]; 0.015 kg/ha): 3G
Morningglory response rating ([2]; 0.03 kg/ha): 8G
Teaweed response rating ([17]; 0.015 kg/ha): 0
Teaweed response rating ([17]; 0.03 kg/ha): 4G
Teaweed response rating ([17]; 0.12 kg/ha): 10C
Velvetleaf response rating ([18]; 0.007 kg/ha): 0
Velvetleaf response rating ([18]; 0.015 kg/ha): 0
Jimsonweed response rating ([3]; 0.007 kg/ha): 0
Jimsonweed response rating ([3]; 0.015 kg/ha): 0
Cotton response rating ([19]; 0.007 kg/ha): 10C
Alfalfa response rating ([14]; 0.007 kg/ha): 7G
Alfalfa response rating ([14]; 0.015 kg/ha): 8C
Alfalfa response rating ([14]; 0.06 kg/ha): 9C
Sorghum response rating ([15]; 0.015 kg/ha): 9C
Sorghum response rating ([15]; 0.06 kg/ha): 10C
Cocklebur response rating ([20]; 0.003 kg/ha): 3G

— patent EP0044212B1, “Herbicidal o-alkylsulfonyloxy- and o-alkylsulfonylamino-benzenesulfonamides” (E.I. DU PONT DE NEMOURS AND COMPANY, priority 1980, dated 1982)
